Numbered stars: 1 amine (or outer) side, 2 acyl side, 3 side chain; on linkers, the order of the positions; unused ones are H or OH. Bridge positions count the residues as written; N and C are the ends. Peptide text beside a SMILES is read from it. * marks the point of attachment. C20 diacid = O=C(O)CCCCCCCCCCCCCCCCCCC(=O)*; γGlu = O=C(O)[C@H](CCC(=O)[*:2])N[*:1]; AEEA = NCCOCCOCC(=O)O
How the values were obtained:
[1] = target: T1, rat amylin receptor (rat calcitonin receptor + rat RAMP 3) (Rattus norvegicus, UniProt P32214+Q9JJ73); test: ASSAY (VI) binding to the rat amylin receptor; conditions: for IC50: binding to rat amylin receptor, read-out: rAmylin-R bind IC50
T1 construct: expressed in transfected cells; host or cells: BHK tk'ts 13 (transient, FuGENE 6), membranes
T1 sequence (P32214 25-479 isoform P32214-2 limits assumed): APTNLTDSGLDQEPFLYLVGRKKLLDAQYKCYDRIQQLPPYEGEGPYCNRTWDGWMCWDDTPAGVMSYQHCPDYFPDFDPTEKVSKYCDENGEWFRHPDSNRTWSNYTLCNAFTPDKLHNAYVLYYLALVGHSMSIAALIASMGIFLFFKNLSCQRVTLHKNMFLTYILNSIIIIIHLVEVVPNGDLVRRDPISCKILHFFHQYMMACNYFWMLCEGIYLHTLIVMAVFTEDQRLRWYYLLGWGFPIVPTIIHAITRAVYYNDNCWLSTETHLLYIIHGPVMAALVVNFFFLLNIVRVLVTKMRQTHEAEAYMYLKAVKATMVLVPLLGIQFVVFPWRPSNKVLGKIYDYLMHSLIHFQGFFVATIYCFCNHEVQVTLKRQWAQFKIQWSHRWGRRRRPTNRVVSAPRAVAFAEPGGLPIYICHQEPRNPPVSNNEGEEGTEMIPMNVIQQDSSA
T1 sequence (Q9JJ73 23-147 partner): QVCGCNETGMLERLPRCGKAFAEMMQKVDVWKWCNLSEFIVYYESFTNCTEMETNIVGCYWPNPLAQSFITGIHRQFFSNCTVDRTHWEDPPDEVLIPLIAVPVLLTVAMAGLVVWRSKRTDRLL
How it was run: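 Membranes for this rat amylin receptor binding assay came from BHK tk′ts 13 cells. The cells were transiently transfected with rat calcitonin receptor using the FuGENE® 6 reagent from Roche, as the manufacturer recommends. The cells were collected approximately 48 hours after transfection, and membranes were then prepared.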

[2] = ASSAY (III) ThT fibrillation assay for physical stability; format: physicochemical
How it was run: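 Physical stability scored by ThT fluorescence (444 nm excitation, 485 nm emission) tracked every 20 min during 37 °C incubation with 960 rpm shaking, ThT at 1 μM final. Values are replicate means with SD at chosen times; HPLC against pramlintide standard gives initial and post-assay soluble concentrations.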

[3] = Table 7, rat binding selectivity, rCTR IC50 / rAmylin-R IC50
[4] = Table 7a (preferred compounds), rat binding selectivity, rCTR IC50 / rAmylin-R IC50
[5] = ratio of rCTR bind IC50 to rAmylin-R bind IC50

Structure (SMILES) | IC50 ([1]; Table 7) [nM] | Ratio rCT/rAmylin binding [1, 3] | Ratio rCT/rAmylin binding [1, 4] | ThT pH 4.0 lag time (h) [2] [h] | Ratio rCT/rAmylin binding [1, 5]
CC[C@H](C)[C@H](NC(=O)[C@H](C)NC(=O)CNC(=O)[C@H](Cc1ccccc1)NC(=O)[C@H](CC(N)=O)NC(=O)[C@@H]1CCCN1C(=O)[C@H](CO)NC(=O)[C@H](CO)NC(=O)[C@H](Cc1c[nH]cn1)NC(=O)[C@H](CCCNC(=N)N)NC(=O)[C@H](CC(C)C)NC(=O)[C@H](Cc1ccccc1)NC(=O)[C@H](CCC(=O)O)NC(=O)[C@H](C)NC(=O)[C@H](CC(C)C)NC(=O)[C@H](CCCNC(=N)N)NC(=O)[C@H](CCC(N)=O)NC(=O)[C@@H](NC(=O)[C@H](C)NC(=O)[C@@H]1CSSC[C@H](NC(=O)[C@H](CCCCN)NC(=O)CC[C@H](NC(=O)CCCCCCCCCCCCCCCCCCC(=O)O)C(=O)O)C(=O)N[C@@H](CC(N)=O)C(=O)N[C@@H]([C@@H](C)O)C(=O)N[C@@H](C)C(=O)N[C@@H]([C@@H](C)O)C(=O)N1)[C@@H](C)O)C(=O)N1CCC[C@H]1C(=O)N[C@@H](CO)C(=O)N[C@@H](CO)C(=O)N[C@H](C(=O)N[C@@H](CC(N)=O)C(=O)N[C@H](C(=O)NCC(=O)N[C@@H](CO)C(=O)N[C@@H](Cc1c[nH]cn1)C(=O)N[C@H](C(=O)N[C@@H](Cc1ccc(O)cc1)C(N)=O)[C@@H](C)O)C(C)C)[C@@H](C)O [Example 18] ({C20 diacid-γGlu}-KCNTATCATQRLAEFLRHSSPNFGAIPSSTNVGSHTY-NH2; disulfide 2-7) | 0.476 | 27.3 | 27.3 | 45 | 
CC[C@H](C)[C@H](NC(=O)[C@H](C)NC(=O)CNC(=O)[C@H](Cc1ccccc1)NC(=O)[C@H](CC(N)=O)NC(=O)[C@@H]1CCCN1C(=O)[C@H](CO)NC(=O)[C@H](CO)NC(=O)[C@H](Cc1c[nH]cn1)NC(=O)[C@H](CCCNC(=N)N)NC(=O)[C@H](CC(C)C)NC(=O)[C@H](Cc1ccccc1)NC(=O)[C@H](CCC(=O)O)NC(=O)[C@H](C)NC(=O)[C@H](CC(C)C)NC(=O)[C@H](CCCNC(=N)N)NC(=O)[C@H](CCC(N)=O)NC(=O)[C@@H](NC(=O)[C@H](C)NC(=O)[C@@H]1CSSC[C@H](NC(=O)[C@H](CCCCN)NC(=O)COCCOCCNC(=O)COCCOCCNC(=O)CC[C@H](NC(=O)CCCCCCCCCCCCCCCCCCC(=O)O)C(=O)O)C(=O)N[C@@H](CC(N)=O)C(=O)N[C@@H]([C@@H](C)O)C(=O)N[C@@H](C)C(=O)N[C@@H]([C@@H](C)O)C(=O)N1)[C@@H](C)O)C(=O)N1CCC[C@H]1C(=O)N[C@@H](CO)C(=O)N[C@@H](CO)C(=O)N[C@H](C(=O)N[C@@H](CC(N)=O)C(=O)N[C@H](C(=O)NCC(=O)N[C@@H](CO)C(=O)N[C@@H](CC(N)=O)C(=O)N[C@H](C(=O)N[C@@H](Cc1ccc(O)cc1)C(N)=O)[C@@H](C)O)C(C)C)[C@@H](C)O [Example 19] | 1.02 | 93.6 | 93.6 | 9 | 93.6
CC[C@H](C)[C@H](NC(=O)[C@H](C)NC(=O)CNC(=O)[C@H](Cc1ccccc1)NC(=O)[C@H](CC(N)=O)NC(=O)[C@@H]1CCCN1C(=O)[C@H](CO)NC(=O)[C@H](CO)NC(=O)[C@H](Cc1c[nH]cn1)NC(=O)[C@H](CCCNC(=N)N)NC(=O)[C@H](CC(C)C)NC(=O)[C@H](Cc1ccccc1)NC(=O)[C@H](CCC(=O)O)NC(=O)[C@H](C)NC(=O)[C@H](CC(C)C)NC(=O)[C@H](CCCNC(=N)N)NC(=O)[C@H](CCC(N)=O)NC(=O)[C@@H](NC(=O)[C@H](C)NC(=O)[C@@H]1CSSC[C@H](NC(=O)[C@H](CCCCN)NC(=O)COCCOCCNC(=O)COCCOCCNC(=O)CC[C@H](NC(=O)CCCCCCCCCCCCCCCCCCC(=O)O)C(=O)O)C(=O)N[C@@H](CC(N)=O)C(=O)N[C@@H]([C@@H](C)O)C(=O)N[C@@H](C)C(=O)N[C@@H]([C@@H](C)O)C(=O)N1)[C@@H](C)O)C(=O)N1CCC[C@H]1C(=O)N[C@@H](CO)C(=O)N[C@@H](CO)C(=O)N[C@H](C(=O)N[C@@H](CC(N)=O)C(=O)N[C@H](C(=O)NCC(=O)N[C@@H](CO)C(=O)N[C@@H](CC(N)=O)C(=O)N[C@H](C(=O)N1CCC[C@H]1C(N)=O)[C@@H](C)O)C(C)C)[C@@H](C)O [Example 20] ({C20 diacid-γGlu-AEEA-AEEA}-KCNTATCATQRLAEFLRHSSPNFGAIPSSTNVGSNTP-NH2; disulfide 2-7) |  | 6.4 |  | 45 | 
CC[C@H](C)[C@H](NC(=O)[C@H](C)NC(=O)CNC(=O)[C@H](Cc1ccccc1)NC(=O)[C@H](CC(N)=O)NC(=O)[C@@H]1CCCN1C(=O)[C@H](CO)NC(=O)[C@H](CO)NC(=O)[C@H](Cc1c[nH]cn1)NC(=O)[C@H](CCCNC(=N)N)NC(=O)[C@H](CC(C)C)NC(=O)[C@H](Cc1ccccc1)NC(=O)[C@H](CCC(=O)O)NC(=O)[C@H](C)NC(=O)[C@H](CC(C)C)NC(=O)[C@H](CCCNC(=N)N)NC(=O)[C@H](CCC(N)=O)NC(=O)[C@@H](NC(=O)[C@H](C)NC(=O)[C@@H]1CSSC[C@H](NC(=O)[C@H](CCCCN)NC(=O)CC[C@H](NC(=O)CCCCCCCCCCCCCCCCCCC(=O)O)C(=O)O)C(=O)N[C@@H](CC(N)=O)C(=O)N[C@@H]([C@@H](C)O)C(=O)N[C@@H](C)C(=O)N[C@@H]([C@@H](C)O)C(=O)N1)[C@@H](C)O)C(=O)N1CCC[C@H]1C(=O)N[C@@H](CO)C(=O)N[C@@H](CO)C(=O)N[C@H](C(=O)N[C@@H](CC(N)=O)C(=O)N[C@H](C(=O)NCC(=O)N[C@@H](CO)C(=O)N[C@@H](CCC(=O)O)C(=O)N[C@H](C(=O)N[C@@H](Cc1ccc(O)cc1)C(N)=O)[C@@H](C)O)C(C)C)[C@@H](C)O [Example 22] ({C20 diacid-γGlu}-KCNTATCATQRLAEFLRHSSPNFGAIPSSTNVGSETY-NH2; disulfide 2-7) | 2.19 | 28.5 | 28.5 | 45 | 28.5
CC[C@H](C)[C@H](NC(=O)[C@H](C)NC(=O)CNC(=O)[C@H](Cc1ccccc1)NC(=O)[C@H](CC(N)=O)NC(=O)[C@@H]1CCCN1C(=O)[C@H](CO)NC(=O)[C@H](CO)NC(=O)[C@H](Cc1c[nH]cn1)NC(=O)[C@H](CCCNC(=N)N)NC(=O)[C@H](CC(C)C)NC(=O)[C@H](Cc1ccccc1)NC(=O)[C@H](CC(N)=O)NC(=O)[C@H](C)NC(=O)[C@H](CC(C)C)NC(=O)[C@H](CCCNC(=N)N)NC(=O)[C@H](CCC(N)=O)NC(=O)[C@@H](NC(=O)[C@H](C)NC(=O)[C@@H]1CSSC[C@H](NC(=O)[C@H](CCCCN)NC(=O)CC[C@H](NC(=O)CCCCCCCCCCCCCCCCCCC(=O)O)C(=O)O)C(=O)N[C@@H](CC(N)=O)C(=O)N[C@@H]([C@@H](C)O)C(=O)N[C@@H](C)C(=O)N[C@@H]([C@@H](C)O)C(=O)N1)[C@@H](C)O)C(=O)N1CCC[C@H]1C(=O)N[C@@H](CO)C(=O)N[C@@H](CO)C(=O)N[C@H](C(=O)N[C@@H](CC(N)=O)C(=O)N[C@H](C(=O)NCC(=O)N[C@@H](CO)C(=O)N[C@@H](CCC(=O)O)C(=O)N[C@H](C(=O)N[C@@H](Cc1ccc(O)cc1)C(N)=O)[C@@H](C)O)C(C)C)[C@@H](C)O [Example 23] | 1.12 | 71.3 | 71.3 | 3 | 71.3
CC[C@H](C)[C@H](NC(=O)[C@H](C)NC(=O)CNC(=O)[C@H](Cc1ccccc1)NC(=O)[C@H](CC(N)=O)NC(=O)[C@@H]1CCCN1C(=O)[C@H](CO)NC(=O)[C@H](CO)NC(=O)[C@H](Cc1c[nH]cn1)NC(=O)[C@H](CCCNC(=N)N)NC(=O)[C@H](CC(C)C)NC(=O)[C@H](Cc1ccccc1)NC(=O)[C@H](CC(N)=O)NC(=O)[C@H](C)NC(=O)[C@H](CC(C)C)NC(=O)[C@H](CCCNC(=N)N)NC(=O)[C@H](CCC(N)=O)NC(=O)[C@@H](NC(=O)[C@H](C)NC(=O)[C@@H]1CSSC[C@H](NC(=O)[C@H](CCCCN)NC(=O)COCCOCCNC(=O)COCCOCCNC(=O)CC[C@H](NC(=O)CCCCCCCCCCCCCCCCCCC(=O)O)C(=O)O)C(=O)N[C@@H](CC(N)=O)C(=O)N[C@@H]([C@@H](C)O)C(=O)N[C@@H](C)C(=O)N[C@@H]([C@@H](C)O)C(=O)N1)[C@@H](C)O)C(=O)N1CCC[C@H]1C(=O)N[C@@H](CO)C(=O)N[C@@H](CO)C(=O)N[C@H](C(=O)N[C@@H](CC(N)=O)C(=O)N[C@H](C(=O)NCC(=O)N[C@@H](CO)C(=O)N[C@@H](CC(N)=O)C(=O)N[C@H](C(=O)N[C@@H](Cc1ccc(O)cc1)C(N)=O)[C@@H](C)O)C(C)C)[C@@H](C)O [Example 24] | 3.01 | 116.3 | 116.3 | 34 | 116.3

— patent US9023789B2, “Amylin analogs and pharmaceutical compositions thereof” (Novo Nordisk A/S, priority 2012, dated 2015)
